≈ marks a conversion by molar mass, not a printed value. Calls of active or inactive are those of the source. No cut-off for these calls is given here. Square brackets hold non-standard residues; d marks the D form. Peptide text beside a SMILES is read from it. * marks the point of attachment. Stearoyl = CCCCCCCCCCCCCCCCCC(=O)*; Palmitoyl = CCCCCCCCCCCCCCCC(=O)*; Myristoyl = CCCCCCCCCCCCCC(=O)*; Orn = NCCC[CH](N)C(=O)O
How the values were obtained:
[1] = tested on: Staphylococcus epidermidis; assay: Antibacterial activity against clinical isolates of ampicillin-resistant Staphylococcus epidermidis GMCH/R-Amp008 after overnight incubation by microdilution broth assay; format: functional
Klebsiella pneumoniae [2] = assay: Antibacterial activity against clinical isolates of kanamycin-resistant Klebsiella pneumoniae GMCH/R-Kan006 after overnight incubation by microdilution broth assay; format: functional
Pseudomonas aeruginosa [3] = assay: Antibacterial activity against clinical isolates of Pseudomonas aeruginosa PGI/DML02084 after overnight incubation by microdilution broth assay; format: functional
Enterococcus faecalis [4] = assay: Antibacterial activity against clinical isolates of Enterococcus faecalis GMCH/B0091 after overnight incubation by microdilution broth assay; format: functional
[5] = Cytotoxicity against human HaCaT cells assessed as cell viability at 100 ug/ml after 18 hrs by MTT assay; format: cell-based; settings: read-out: Activity
Enterococcus faecalis [6] = assay: Antibacterial activity against clinical isolates of gentamicin-resistant Enterococcus faecalis GMCH/R-Gen011 after overnight incubation by microdilution broth assay; format: functional
Haemophilus influenzae [7] = assay: Antibacterial activity against clinical isolates of Haemophilus influenzae PGI/DML01751 after overnight incubation by microdilution broth assay; format: functional
Haemophilus influenzae [8] = assay: Antibacterial activity against clinical isolates of ciprofloxacin-resistant Haemophilus influenzae PGI/DML01744 after overnight incubation by microdilution broth assay; format: functional
Escherichia coli [9] = assay: Antibacterial activity against clinical isolates of imipenem-resistant Escherichia coli PGI/DML02292 after overnight incubation by microdilution broth assay; format: functional
Acinetobacter baumannii [10] = assay: Antibacterial activity against clinical isolates of imipenem-resistant Acinetobacter baumannii GMCH/R-Imi003 after overnight incubation by microdilution broth assay; format: functional
Enterococcus faecium [11] = assay: Antibacterial activity against clinical isolates of penicillin-resistant Enterococcus faecium GMCH/R-Pen003 after overnight incubation by microdilution broth assay; format: functional
[12] = Cytotoxicity against human HaCaT cells assessed as cell viability at 500 ug/ml after 18 hrs by MTT assay; format: cell-based; settings: read-out: Activity
[13] = tested on: Staphylococcus epidermidis; assay: Antibacterial activity against clinical isolates of Staphylococcus epidermidis GMCH/B0057 after overnight incubation by microdilution broth assay; format: functional
Pseudomonas aeruginosa [14] = assay: Antibacterial activity against clinical isolates of streptomycin-resistant Pseudomonas aeruginosa PGI/DML01991 after overnight incubation by microdilution broth assay; format: functional
Staphylococcus aureus [15] = assay: Antibacterial activity against clinical isolates of methicillin-resistant Staphylococcus aureus PGI/DML03149 after overnight incubation by microdilution broth assay; format: functional
Streptococcus pneumoniae [16] = assay: Antibacterial activity against clinical isolates of Streptococcus pneumoniae PGI/DML02468 after overnight incubation by microdilution broth assay; format: functional
Streptococcus pneumoniae [17] = assay: Antibacterial activity against clinical isolates of erythromycin-resistant Streptococcus pneumoniae PGI/DML02213 after overnight incubation by microdilution broth assay; format: functional
Escherichia coli [18] = assay: Antibacterial activity against clinical isolates of Escherichia coli PGI/DML02250 after overnight incubation by microdilution broth assay; format: functional
Acinetobacter baumannii [19] = assay: Antibacterial activity against clinical isolates of Acinetobacter baumannii GMCH/B0083 after overnight incubation by microdilution broth assay; format: functional
Staphylococcus aureus [20] = assay: Antibacterial activity against clinical isolates of Staphylococcus aureus PGI/DML03054 after overnight incubation by microdilution broth assay; format: functional
Klebsiella pneumoniae [21] = assay: Antibacterial activity against clinical isolates of Klebsiella pneumoniae GMCH/B0127 after overnight incubation by microdilution broth assay; format: functional
Enterococcus faecium [22] = assay: Antibacterial activity against clinical isolates of Enterococcus faecium GMCH/B0102 after overnight incubation by microdilution broth assay; format: functional
[23] = Membrane permeabilization activity assessed as release of calcein from liposomes after 5 mins by fluorescence assay
Escherichia coli [24] = assay: Binding affinity to Escherichia coli PGI/DML02292 DNA at 12 ug/ml after 1 hr by agarose gel electrophoresis
[25] = Membrane permeabilization activity assessed as release of calcein from liposomes at 1:50 lipopeptide:lipid molar ratio after 5 mins by fluorescence assay
[26] = Membrane permeabilization activity assessed as release of calcein from liposomes at 1:10 lipopeptide:lipid molar ratio after 5 mins by fluorescence assay
Plasma = assay: Drug degradation in human plasma at 1 ug/ml after 24 hrs by RP-HPLC analysis; format: ADME, cell-free

| SMILES | MIC [1] | MIC (Klebsiella pneumoniae [2]) | MIC (Pseudomonas aeruginosa [3]) | MIC (Enterococcus faecalis [4]) | viability at 18 h, 100 ug/ml [5] | MIC (Enterococcus faecalis [6]) | MIC (Haemophilus influenzae [7]) | MIC (Haemophilus influenzae [8]) | MIC (Escherichia coli [9]) | MIC (Acinetobacter baumannii [10]) | MIC (Enterococcus faecium [11]) | viability at 18 h, 500 ug/ml [12] | MIC [13] | MIC (Pseudomonas aeruginosa [14]) | MIC (Staphylococcus aureus [15]) | MIC (Streptococcus pneumoniae [16]) | MIC (Streptococcus pneumoniae [17]) | MIC (Escherichia coli [18]) | MIC (Acinetobacter baumannii [19]) | MIC (Staphylococcus aureus [20]) | further results |
| --- | --- | --- | --- | --- | --- | --- | --- | --- | --- | --- | --- | --- | --- | --- | --- | --- | --- | --- | --- | --- | --- |
| CCCCCCCCCCCCCC(=O)NC(CCCN)C(=O)NC(CCCN)C(=O)NC(CCCN)C(=O)NC(CCCN)C(=O)NC(CCCN)C(N)=O (stereo not given) (Myristoyl-[Orn][Orn][Orn][Orn][Orn]-NH2; configuration not given here) | 12.5 µg/mL (≈ 15.7 µM) | 7.5 µg/mL (≈ 9.4 µM) | 1.5 µg/mL (≈ 1.88 µM) | 1.5 µg/mL (≈ 1.88 µM) | > 80% | 10.5 µg/mL (≈ 13.2 µM) | 12.5 µg/mL (≈ 15.7 µM) | 15.5 µg/mL (≈ 19.4 µM) | 6.25 µg/mL (≈ 7.83 µM) | 6.5 µg/mL (≈ 8.14 µM) | 6.21 µg/mL (≈ 7.78 µM) | > 80% | 7.5 µg/mL (≈ 9.4 µM) | 4.25 µg/mL (≈ 5.32 µM) | 12.5 µg/mL (≈ 15.7 µM) | 3.5 µg/mL (≈ 4.39 µM) | 12.5 µg/mL (≈ 15.7 µM) | 2.5 µg/mL (≈ 3.13 µM) | 8.25 µg/mL (≈ 10.3 µM) | 10 µg/mL (≈ 12.5 µM) | MIC (Klebsiella pneumoniae [21]): 6.2 µg/mL (≈ 7.77 µM); MIC (Enterococcus faecium [22]): 3.1 µg/mL (≈ 3.88 µM) |
| CCCCCCCCCCCCCCCC(=O)NC(CCCN)C(=O)NC(CCCN)C(=O)NC(CCCN)C(=O)NC(CCCN)C(=O)NC(CCCN)C(N)=O (stereo not given) (Palmitoyl-[Orn][Orn][Orn][Orn][Orn]-NH2; configuration not given here) | 7.5 µg/mL (≈ 9.08 µM) | 10 µg/mL (≈ 12.1 µM) | 2 µg/mL (≈ 2.42 µM) | 2 µg/mL (≈ 2.42 µM) | > 80% | 12.5 µg/mL (≈ 15.1 µM) | 10 µg/mL (≈ 12.1 µM) | 12.5 µg/mL (≈ 15.1 µM) | 5 µg/mL (≈ 6.05 µM) | 9.5 µg/mL (≈ 11.5 µM) | 7.5 µg/mL (≈ 9.08 µM) | > 80% | 3.1 µg/mL (≈ 3.75 µM) | 6.5 µg/mL (≈ 7.87 µM) | 10 µg/mL (≈ 12.1 µM) | 3.1 µg/mL (≈ 3.75 µM) | 7.5 µg/mL (≈ 9.08 µM) | 1.5 µg/mL (≈ 1.82 µM) | 12.5 µg/mL (≈ 15.1 µM) | 7.5 µg/mL (≈ 9.08 µM) | MIC (Klebsiella pneumoniae [21]): 2.5 µg/mL (≈ 3.03 µM); MIC (Enterococcus faecium [22]): 3 µg/mL (≈ 3.63 µM) |
| CCCCCCCCCCCCCCCCCC(=O)NC(CCCN)C(=O)NC(CCCN)C(=O)NC(CCCN)C(N)=O (stereo not given) | 5 µg/mL (≈ 7.99 µM) | 7.5 µg/mL (≈ 12 µM) | 1.5 µg/mL (≈ 2.4 µM) | 2.5 µg/mL (≈ 3.99 µM) | > 80% | 6.25 µg/mL (≈ 9.98 µM) | 10 µg/mL (≈ 16 µM) | 7.5 µg/mL (≈ 12 µM) | 7.5 µg/mL (≈ 12 µM) | 4.5 µg/mL (≈ 7.19 µM) | 7.5 µg/mL (≈ 12 µM) | > 80% | 7.5 µg/mL (≈ 12 µM) | 4.5 µg/mL (≈ 7.19 µM) | 5.5 µg/mL (≈ 8.79 µM) | 2.5 µg/mL (≈ 3.99 µM) | 5 µg/mL (≈ 7.99 µM) | 10 µg/mL (≈ 16 µM) | 6.5 µg/mL (≈ 10.4 µM) | 6.2 µg/mL (≈ 9.91 µM) | MIC (Klebsiella pneumoniae [21]): 3.5 µg/mL (≈ 5.59 µM); MIC (Enterococcus faecium [22]): 4.5 µg/mL (≈ 7.19 µM) |
| CCCCCCCCCCCCCCCCCC(=O)NC(CCCN)C(=O)NC(CCCN)C(=O)NC(CCCN)C(=O)NC(CCCN)C(N)=O (stereo not given) (Stearoyl-[Orn][Orn][Orn][Orn]-NH2; configuration not given here) | 5 µg/mL (≈ 6.76 µM) | 8 µg/mL (≈ 10.8 µM) | 4.5 µg/mL (≈ 6.08 µM) | 3.1 µg/mL (≈ 4.19 µM) | 82% | 10 µg/mL (≈ 13.5 µM) | 8 µg/mL (≈ 10.8 µM) | 12.5 µg/mL (≈ 16.9 µM) | 7.5 µg/mL (≈ 10.1 µM) | 12.5 µg/mL (≈ 16.9 µM) | 12.5 µg/mL (≈ 16.9 µM) | 67% | 5.5 µg/mL (≈ 7.43 µM) | 2 µg/mL (≈ 2.7 µM) | 7.5 µg/mL (≈ 10.1 µM) | 4 µg/mL (≈ 5.4 µM) | 12.5 µg/mL (≈ 16.9 µM) | 7.5 µg/mL (≈ 10.1 µM) | 10 µg/mL (≈ 13.5 µM) | 5 µg/mL (≈ 6.76 µM) | Activity [23]: Dose-dependent effect; Activity (Escherichia coli [24]): inactive; Activity [25]: 43%; MIC (Klebsiella pneumoniae [21]): 3.5 µg/mL (≈ 4.73 µM); Activity [26]: 79%; Stability (Plasma): Stable; MIC (Enterococcus faecium [22]): 7.5 µg/mL (≈ 10.1 µM) |
| CCCCCCCCCCCCCCCC(=O)NC(CCCN)C(=O)NC(CCCN)C(=O)NC(CCCN)C(=O)NC(CCCN)C(N)=O (stereo not given) (Palmitoyl-[Orn][Orn][Orn][Orn]-NH2; configuration not given here) | 2 µg/mL (≈ 2.81 µM) | 5.5 µg/mL (≈ 7.72 µM) | 3 µg/mL (≈ 4.21 µM) | 3.5 µg/mL (≈ 4.92 µM) | > 80% | 7.5 µg/mL (≈ 10.5 µM) | 7.5 µg/mL (≈ 10.5 µM) | 12.5 µg/mL (≈ 17.6 µM) | 12.5 µg/mL (≈ 17.6 µM) | 10 µg/mL (≈ 14 µM) | 3.5 µg/mL (≈ 4.92 µM) | > 80% | 2.5 µg/mL (≈ 3.51 µM) | 6.25 µg/mL (≈ 8.78 µM) | 4.5 µg/mL (≈ 6.32 µM) | 2.5 µg/mL (≈ 3.51 µM) | 10.5 µg/mL (≈ 14.7 µM) | 2 µg/mL (≈ 2.81 µM) | 6.5 µg/mL (≈ 9.13 µM) | 3.1 µg/mL (≈ 4.35 µM) | MIC (Klebsiella pneumoniae [21]): 2 µg/mL (≈ 2.81 µM); MIC (Enterococcus faecium [22]): 3.5 µg/mL (≈ 4.92 µM) |
